From patent US9381193B2, “Contraceptive methods and compositions” (WASHINGTON UNIVERSITY, priority 2011, dated 2016)

Experiments:
ESC-T cells = test: In vitro decidualization of immortalized human ESC-T cells (decidualization marker mRNA, morphology); type: cell-based; design: Lowering of PRL and IGFBP1 mRNA expression vs differentiation media only / Morphological change during decidualization: dose or concentration left out as unconfirmed
From the text: Decidualization in human cells was monitored by measuring the mRNA expression of two decidualization markers, PRL and IGFBP1.
This NADP+ analog inhibits two enzymes in the PPP, G6PD and 6GPDH, which utilize NADP+ and convert it into NADPH.
Two major results of the PPP are the production of ribose 5-phosphate and regeneration of NADPH. Production of ribose 5-phosphate is a central component in the de novo synthesis of ribonucleosides (RNs) and deoxyribonucleosides (DRNs). […] To address this question, ESC-T cultures were used and the differentiation media was supplemented with RNs and DRNs during treatment with PPP inhibitors.
Endometrial tissue was obtained from human uteri after hysterectomy conducted for benign disease or from endometrial biopsies. Informed consent was obtained from each patient before surgery and protocols were approved by the Human Research Protection Office of Washington University (HRPO#07-0949). Tissues were placed in HBSS and transported to the laboratory. hESCs were isolated and cultured as previously described. In vitro decidualization was performed as previously described with several changes. Cells were seeded in 6-well plates at 2×10^5 cells/well in DMEM:F12 without phenol red, supplemented with 2% heat-inactivated charcoal dextran-stripped calf serum (HyClone) and 50 μg/ml penicillin/streptomycin (Cambrex Bio Science). Cells were treated with 1 μM medroxyprogesterone-17-acetate (MPA) (Sigma) and 0.5 mM N^6, 2′-O-Dibutyryladenosine 3′,5′-cyclic monophosphate sodium salt (db-cAMP) (Sigma). Control samples received 0.1% ethanol vehicle control.
Human immortalized ESC (ESC telomerase immortalized, ESC-T), were decidualized in vitro in the presence of 0, 2.5 or 5 mM GlcN for 9 days.

FVB/NJ mice = test: Serum hormone concentration in DHEA-fed mice (ELISA); type: in vivo, mouse
From the text: Female FVB/NJ mice were obtained from Jackson Laboratories (Bar Harbor, Me., USA). Regular rodent chow was supplemented with DHEA at 0.01%, 0.1% and 0.6% w/w. Three-week-old mice had access to food and water ad libitum. Mice were fed control or DHEA-supplemented chow for two weeks. The Animal Studies Committee at Washington University School of Medicine reviewed and approved all animal experiments. Animals were maintained according to the Guide for the Care and Use of Laboratory Animals provided by the Institute for Laboratory Animal Research.
Control and DHEA-fed mice were superovulated with 10 IU pregnant mare serum gonadotropin (PMSG) by i.p. injection. DHEA, estradiol and testosterone serum concentrations were measured 48 hours later. For progesterone concentrations, mice were given an i.p. injection of 10 IU hCG 48 hours after PMSG and blood was collected 24 hours later. Mice were anesthetized with 50 μl ketamine and xylazine (1:1) and blood was collected by cardiac puncture. Serum was separated by centrifugation and stored at −20° C. ELISA assays were used to determine serum hormone concentrations (Alpco, Salem, N.H., USA).

denuded GV oocytes = test: ATP and citrate levels in single denuded GV oocytes of DHEA-fed mice; type: in vivo, mouse
From the text: (§1) COCs were collected following superovulation with PMSG. Ovaries were removed and placed in M2 media (Sigma, St. Louis, Mo., USA). COCs were obtained by rupture of antral follicles with a syringe and needle. To collect denuded germinal vesicle (GV) oocytes, the cumulus cells were removed by gentle pipetting. The oviducts were removed from PMSG- and hCG-primed mice. The ampulla of the oviduct was punctured to release the clutch of ovulated oocytes 24 hr after hCG.
(§2) Denuded oocytes or cultured blastocysts were frozen on a glass slide with liquid nitrogen and dried overnight at −35° C. under vacuum. Individual oocytes or blastocysts were extracted in nanoliter volume under oil. Assays were designed to measure ATP, citrate and G6PDH by linking with NAD/NADH or NADP/NADPH which are enzymatically amplified in a cycling reaction allowing products to be measured by fluorometry.

G6PDH = target: T1, G6PDH (Mus musculus, UniProt Q00612); test: G6PDH enzyme activity in single oocytes of DHEA-fed mice; type: in vivo
T1 construct: Individual oocytes or blastocysts were extracted in nanoliter volume under oil; from tissue; host or cells: denuded germinal vesicle oocytes of mice
From the text: as §1, §2

blastocysts = test: ATP and citrate levels in blastocysts cultured from two-cell embryos with DHEA; type: cell-based, mouse
Experimental: Mice were superovulated and mated with males of known fertility. Forty-five hours after injection with hCG, the oviducts were removed. Two-cell embryos were collected by flushing the oviducts with human tubal fluid media (HTF) with 0.25% BSA. Embryos were cultured in HTF with BSA and either DMSO, 10 μM DHEA or 100 μM DHEA for 72 hours. In vitro cultured blastocysts were transferred to 2.5 days postcoitus (dpc) pseudopregnant ICR females. Resulting embryos and placentas were collected at 14.5 dpc and fixed with Bouin's solution, embedded in paraffin and sectioned.
as §2

oocytes from rats = details: DHEA 1 mg/100 g or 10 mg/100 g body weight, increased with dose and treatment duration; cited from earlier work

T1 sequence (Q00612 whole entry): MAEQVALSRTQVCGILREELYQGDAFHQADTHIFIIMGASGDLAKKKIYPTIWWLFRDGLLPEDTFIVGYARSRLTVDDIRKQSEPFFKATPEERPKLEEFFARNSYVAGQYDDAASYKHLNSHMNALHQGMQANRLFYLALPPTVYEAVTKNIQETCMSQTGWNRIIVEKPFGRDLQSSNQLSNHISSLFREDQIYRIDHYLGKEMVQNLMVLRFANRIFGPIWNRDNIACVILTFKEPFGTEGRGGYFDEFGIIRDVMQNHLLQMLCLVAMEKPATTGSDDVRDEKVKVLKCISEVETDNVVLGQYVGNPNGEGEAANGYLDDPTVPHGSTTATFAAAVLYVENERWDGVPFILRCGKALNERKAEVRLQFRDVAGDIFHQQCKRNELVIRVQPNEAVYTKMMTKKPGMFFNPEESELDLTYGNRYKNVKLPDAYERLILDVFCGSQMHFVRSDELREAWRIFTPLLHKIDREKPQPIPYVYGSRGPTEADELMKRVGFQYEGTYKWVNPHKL

C[C@]12CC[C@H](O)CC1=CC[C@@H]1[C@@H]2CC[C@]2(C)C(=O)CC[C@@H]12 [DHEA, dehydroepiandrosterone]
PRL and IGFBP1 decidualization markers (ESC-T cells; 100 μM DHEA, day 4): drastic decrease
Morphological change during decidualization (ESC-T cells; DHEA): the morphological progression is halted
Lowering of PRL and IGFBP1 mRNA expression vs differentiation media only (ESC-T cells; DHEA, day 3 of in vitro culture): 5 fold
Increase in DHEA serum levels (FVB/NJ mice; 0.01% DHEA supplementation): 1.9 fold
Serum DHEA (FVB/NJ mice; DHEA diets 0.01%, 0.1%, 0.6%, 48 hours after PMSG): elevated in the DHEA-fed mice in a dose-dependent fashion
Citrate, of control (denuded GV oocytes; 0.01% DHEA group): 90%
Citrate compared to control (denuded GV oocytes; 0.1% DHEA group): 83%
G6PDH activity (G6PDH; 0.01% DHEA and 0.1% DHEA groups): decreased
G6PDH activity, of normal (G6PDH; 0.1% DHEA diet): 87%
Citrate levels of control (blastocysts; 10 μM DHEA): 86%
Citrate levels of control (blastocysts; 100 μM DHEA): 68%
Percentage of degenerated oocytes (oocytes from rats): ≤ 70%
